Experiments:
pigweed = assay: Test B pre/postemergence pigweed; assay type: in vivo, Amaranthus retroflexus; settings: for Plant response rating, Redroot pigweed: scale of 0 to 10 where 0 is no effect and 10 is complete control
Summary of the method: (§1)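 Test chemicals in a non-phytotoxic solvent mixture with surfactant were sprayed preemergence onto planted seeds and postemergence onto plants 2 to 18 cm tall (1- to 4-leaf stage). After twelve to sixteen days in a greenhouse, injury was visually rated against untreated controls from 0 (no effect) to 10 (complete control).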

wild oat = assay: Test B pre/postemergence wild oat; assay type: in vivo, Avena fatua; settings: for Plant response rating, Wild oats: scale of 0 to 10 where 0 is no effect and 10 is complete control
Summary of the method: as §1

wheat = assay: Test B pre/postemergence wheat; assay type: in vivo, Triticum aestivum; settings: for Plant response rating, Wheat: scale of 0 to 10 where 0 is no effect and 10 is complete control
Summary of the method: as §1

velvetleaf = assay: Test B pre/postemergence velvetleaf; assay type: in vivo, Abutilon theophrasti; settings: for Plant response rating, Velvetleaf: scale of 0 to 10 where 0 is no effect and 10 is complete control
Summary of the method: as §1

soybean = assay: Test B pre/postemergence soybean; assay type: in vivo, Glycine max
Summary of the method: as §1

rape = assay: Test B pre/postemergence rape; assay type: in vivo, Brassica napus; settings: for Plant response rating, Rape: scale of 0 to 10 where 0 is no effect and 10 is complete control
Summary of the method: as §1

duck salad = assay: Test B flood test duck salad; assay type: in vivo, Heteranthera limosa
Summary of the method: (§2)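 Plants were grown to the 2-leaf stage before treatment with test chemical, then held in a greenhouse for twelve to sixteen days. Injury was visually rated against untreated controls on a 0–10 scale, where 0 is no effect and 10 is complete control.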

bedstraw = assay: Test B pre/postemergence bedstraw; assay type: in vivo, Galium aparine; settings: Preemergence; for Plant response rating, Bedstraw: scale of 0 to 10 where 0 is no effect and 10 is complete control; for Bedstraw plant response rating: scale 0 to 10, 0 is no effect, 10 is complete control
Summary of the method: as §1

bamyardgrass = assay: Test B flood test barnyardgrass; assay type: in vivo, Echinochloa crus-galli
Summary of the method: as §2

surinam grass = assay: Test B pre/postemergence surinam grass; assay type: in vivo, Brachiaria decumbens
Summary of the method: as §1

smallflower flatsedge = assay: Test B flood test smallflower flatsedge; assay type: in vivo, Cyperus difformis
Summary of the method: as §2

blackgrass = assay: Test B pre/postemergence blackgrass; assay type: in vivo, Alopecurus myosuroides
Summary of the method: as §1

giant foxtail = assay: Test B pre/postemergence giant foxtail; assay type: in vivo, Setaria faberii
Summary of the method: as §1

purple nutsedge = assay: Test B pre/postemergence purple nutsedge; assay type: in vivo, Cyperus rotundus
Summary of the method: as §1

morningglory = assay: Test B pre/postemergence morningglory; assay type: in vivo, Ipomoea hederacea; settings: for Plant response rating, Morningglory: scale of 0 to 10 where 0 is no effect and 10 is complete control
Summary of the method: as §1

cocklebur = assay: Test B pre/postemergence cocklebur; assay type: in vivo, Xanthium strumarium
Summary of the method: as §1

[1] = Postemergence, Rate 250 g/ha, scale 0 to 10
[2] = Preemergence, Rate 250 g/ha, scale 0 to 10, 0 is no effect, 10 is complete control
[3] = Preemergence, Rate 500 g/ha, scale 0 to 10, 0 is no effect, 10 is complete control
[4] = Rate 125 g/ha, Postemergence, scale 0 to 10, 0 is no effect, 10 is complete control
[5] = Rate 62 g/ha, Postemergence, scale 0 to 10, 0 no effect, 10 complete control
[6] = Preemergence, Rate 125 g/ha, scale of 0 to 10 where 0 is no effect and 10 is complete control
[7] = Rate 62 g/ha, flood test species, Pre-emergence, visual evaluation after twelve to sixteen days
[8] = Rate 125 g/ha, under heading Pre-emergence, flood test species, visual evaluation after twelve to sixteen days
[9] = Rate 250 g/ha, Pre-emergence (flood test species), scale 0 to 10, 0 is no effect, 10 is complete control
[10] = Rate 500 g/ha, Pre-emergence, flood test species, scale 0 to 10 (0 no effect, 10 complete control)
[11] = Postemergence, Rate 500 g/ha, scale of 0 to 10 where 0 is no effect and 10 is complete control
[12] = Preemergence, Rate 62 g/ha, scale of 0 to 10 where 0 is no effect and 10 is complete control

CC(C)N(C(=O)n1oc(=O)n(COCC[Si](C)(C)C)c1=O)c1ccc(Cl)cc1 [Compound 467]
Redroot pigweed plant response rating (pigweed; [1]): 3 | Plant response rating, Redroot pigweed (pigweed; Preemergence, Rate 62 g/ha): 7 | Plant response rating, Redroot pigweed (pigweed; Preemergence, Rate 125 g/ha): 7 | Redroot pigweed plant response rating (pigweed; [2]): 7 | Redroot pigweed plant response rating (pigweed; [3]): 9 | Redroot pigweed plant response rating (pigweed; [4]): 0 | Wild oats plant response rating (wild oat; [1]): 2 | Plant response rating, Wild oats (wild oat; Preemergence, Rate 62 g/ha): 0 | Plant response rating, Wild oats (wild oat; Preemergence, Rate 125 g/ha): 0 | Wild oats plant response rating (wild oat; [2]): 0 | Wild oats plant response rating (wild oat; [3]): 0 | Wild oats plant response rating (wild oat; [5]): 0 | Wild oats plant response rating (wild oat; [4]): 0 | Wheat plant response rating (wheat; [1]): 0 | Plant response rating, Wheat (wheat; Preemergence, Rate 62 g/ha): 0 | Plant response rating, Wheat (wheat; Preemergence, Rate 125 g/ha): 0 | Wheat plant response rating (wheat; [2]): 0 | Wheat plant response rating (wheat; [3]): 0 | Wheat plant response rating (wheat; [5]): 0 | Wheat plant response rating (wheat; [4]): 0 | Velvetleaf plant response rating (velvetleaf; [1]): 0 | Plant response rating, Velvetleaf (velvetleaf; Preemergence, Rate 62 g/ha): 0 | Plant response rating, Velvetleaf (velvetleaf; Preemergence, Rate 125 g/ha): 0 | Velvetleaf plant response rating (velvetleaf; [2]): 0 | Velvetleaf plant response rating (velvetleaf; [3]): 1 | Velvetleaf plant response rating (velvetleaf; [5]): 0 | Velvetleaf plant response rating (velvetleaf; [4]): 0 | Soybean plant response rating (soybean; [1]): 0 | Plant response rating, Soybean (soybean; [6]): 0 | Soybean plant response rating (soybean; [2]): 0 | Soybean plant response rating (soybean; [3]): 0 | Soybean plant response rating (soybean; [5]): 0 | Soybean plant response rating (soybean; [4]): 0 | Rape plant response rating (rape; [1]): 4 | Plant response rating, Rape (rape; Preemergence, Rate 62 g/ha): 4 | Plant response rating, Rape (rape; Preemergence, Rate 125 g/ha): 7 | Rape plant response rating (rape; [2]): 7 | Rape plant response rating (rape; [3]): 7 | Rape plant response rating (rape; [5]): 0 | Rape plant response rating (rape; [4]): 0 | Plant response rating, Ducksalad (0 to 10 scale, 0 is no effect, 10 is complete control) (duck salad; [7]): 0 | Ducksalad plant response rating (0 to 10 scale, 0 is no effect, 10 is complete control) (duck salad; [8]): 0 | Ducksalad plant response rating (duck salad; [9]): 0 | Ducksalad plant response rating (duck salad; [10]): 0 | Plant response rating, Bedstraw (bedstraw; Rate 62 g/ha): 0 | Plant response rating, Bedstraw (bedstraw; Rate 125 g/ha): 0 | Bedstraw plant response rating (bedstraw; Rate 250 g/ha): 0 | Bedstraw plant response rating (bedstraw; Rate 500 g/ha): 0 | Plant response rating, Barnyardgrass (0 to 10 scale, 0 is no effect, 10 is complete control) (bamyardgrass; [7]): 0 | Barnyardgrass plant response rating (0 to 10 scale, 0 is no effect, 10 is complete control) (bamyardgrass; [8]): 0 | Barnyardgrass plant response rating (bamyardgrass; [9]): 0 | Barnyardgrass plant response rating (bamyardgrass; [10]): 0 | B. signalgrass plant response rating (surinam grass; Postemergence, Rate 250 g/ha, scale 0 to 10, 0 no effect, 10 complete control): 0 | B. signalgrass plant response rating (surinam grass; [11]): 0 | Plant response rating, B. signalgrass (surinam grass; [12]): 0 | Plant response rating, B. signalgrass (surinam grass; [6]): 0 | B. signalgrass plant response rating (surinam grass; [2]): 0 | B. signalgrass plant response rating (surinam grass; [3]): 2 | B. signalgrass plant response rating (surinam grass; [5]): 0 | B. signalgrass plant response rating (surinam grass; [4]): 0 | Plant response rating, S. Flatsedge (0 to 10 scale, 0 is no effect, 10 is complete control) (smallflower flatsedge; [7]): 0 | S. Flatsedge plant response rating (0 to 10 scale, 0 is no effect, 10 is complete control) (smallflower flatsedge; [8]): 0 | S. Flatsedge plant response rating (smallflower flatsedge; [9]): 0 | S. Flatsedge plant response rating (smallflower flatsedge; [10]): 0 | Blackgrass plant response rating (blackgrass; [1]): 0 | Blackgrass plant response rating (blackgrass; [11]): 7 | Plant response rating, Blackgrass (blackgrass; [12]): 0 | Plant response rating, Blackgrass (blackgrass; [6]): 2 | Blackgrass plant response rating (blackgrass; [2]): 2 | Blackgrass plant response rating (blackgrass; [3]): 2 | Blackgrass plant response rating (blackgrass; [5]): 0 | Blackgrass plant response rating (blackgrass; [4]): 0 | Giant foxtail plant response rating (giant foxtail; [1]): 2 | Giant foxtail plant response rating (giant foxtail; [11]): 4 | Plant response rating, Giant foxtail (giant foxtail; [12]): 0 | Plant response rating, Giant foxtail (giant foxtail; [6]): 7 | Giant foxtail plant response rating (giant foxtail; [2]): 9 | Giant foxtail plant response rating (giant foxtail; [3]): 9 | Giant foxtail plant response rating (giant foxtail; [5]): 0 | Giant foxtail plant response rating (giant foxtail; [4]): 0 | Nutsedge plant response rating (purple nutsedge; [1]): 0 | Plant response rating, Nutsedge (purple nutsedge; [6]): 0 | Nutsedge plant response rating (purple nutsedge; [2]): 0 | Nutsedge plant response rating (purple nutsedge; [3]): 0 | Nutsedge plant response rating (purple nutsedge; [5]): 0 | Morningglory plant response rating (morningglory; [1]): 7 | Plant response rating, Morningglory (morningglory; Preemergence, Rate 62 g/ha): 0 | Plant response rating, Morningglory (morningglory; Preemergence, Rate 125 g/ha): 0 | Morningglory plant response rating (morningglory; [2]): 0 | Morningglory plant response rating (morningglory; [3]): 0 | Morningglory plant response rating (morningglory; [5]): 3 | Morningglory plant response rating (morningglory; [4]): 7 | Cocklebur plant response rating (cocklebur; [1]): 0 | Cocklebur plant response rating (cocklebur; [11]): 5 | Plant response rating, Cocklebur (cocklebur; [12]): 2 | Plant response rating, Cocklebur (cocklebur; [6]): 4 | Cocklebur plant response rating (cocklebur; [2]): 6 | Cocklebur plant response rating (cocklebur; [3]): 6 | Cocklebur plant response rating (cocklebur; [5]): 0 | Cocklebur plant response rating (cocklebur; [4]): 0

Source: patent US6737383B1, “Herbicidal oxadiazolidines” (priority 1999, dated 2004)
